Measurements reported in ChEMBL document CHEMBL4800729 (2021).
Activity calls are given as the source filed them. No cut-off for these calls is given here.

Columns and labels:
[1] = target: 5-hydroxytryptamine receptor 5A (Homo sapiens) (UniProt P47898); conditions: Compound concentration 10.0 uM
[2] = target: T1, 5-hydroxytryptamine receptor 1A (Homo sapiens) (UniProt P08908); conditions: Compound concentration 10.0 uM
T1 sequence (whole entry): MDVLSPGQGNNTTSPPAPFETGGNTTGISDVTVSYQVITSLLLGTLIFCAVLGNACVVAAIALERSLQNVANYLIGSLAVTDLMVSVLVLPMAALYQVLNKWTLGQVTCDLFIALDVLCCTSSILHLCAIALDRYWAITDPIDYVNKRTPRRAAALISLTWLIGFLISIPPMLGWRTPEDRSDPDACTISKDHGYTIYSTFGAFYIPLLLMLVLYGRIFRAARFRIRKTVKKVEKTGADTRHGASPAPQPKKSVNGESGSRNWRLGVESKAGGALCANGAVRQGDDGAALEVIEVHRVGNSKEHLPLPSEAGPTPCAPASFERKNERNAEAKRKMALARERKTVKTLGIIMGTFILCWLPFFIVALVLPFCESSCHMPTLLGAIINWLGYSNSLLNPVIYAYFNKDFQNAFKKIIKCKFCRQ

[3] = target: Myosin light chain kinase (Homo sapiens) (UniProt Q32MK0); assay: MLCK(h) Millipore kinase panel; conditions: Compound concentration 1.0 uM
[4] = target: Myosin-IIIb (Homo sapiens) (UniProt Q8WXR4); assay: MYO3B(h) Millipore kinase panel; conditions: Compound concentration 1.0 uM
[5] = target: Mitogen-activated protein kinase kinase kinase 2 (Homo sapiens) (UniProt Q9Y2U5); assay: MEKK2(h) Millipore kinase panel; conditions: Compound concentration 1.0 uM
[6] = target: Glutamate NMDA receptor (Rattus norvegicus) (UniProt P35439+Q00959+Q00960+Q00961+Q62645+Q8VHN2+Q9R1M7); conditions: Compound concentration 10.0 uM
[7] = target: Muscle, skeletal receptor tyrosine-protein kinase (Homo sapiens) (UniProt O15146); assay: MuSK(h) Millipore kinase panel; conditions: Compound concentration 1.0 uM
[8] = target: Eukaryotic translation initiation factor 2-alpha kinase 1 (Homo sapiens) (UniProt Q9BQI3); assay: HRI(h) Millipore kinase panel; conditions: Compound concentration 1.0 uM
[9] = target: Serine/threonine-protein kinase MRCK gamma (Homo sapiens) (UniProt Q6DT37); assay: MRCKgamma(h) Millipore kinase panel; conditions: Compound concentration 1.0 uM
[10] = target: cAMP-dependent protein kinase catalytic subunit alpha (Homo sapiens) (UniProt P17612); assay: PKA(h) Millipore kinase panel; conditions: Compound concentration 1.0 uM
[11] = target: Serine/threonine-protein kinase 16 (Homo sapiens) (UniProt O75716); assay: STK16(h) Millipore kinase panel; conditions: Compound concentration 1.0 uM
[12] = target: Serine/threonine-protein kinase N2 (Homo sapiens) (UniProt Q16513); assay: PRK2(h) Millipore kinase panel; conditions: Compound concentration 1.0 uM
[13] = target: Serine/threonine-protein kinase OSR1 (Homo sapiens) (UniProt O95747); assay: OSR1(h) Millipore kinase panel; conditions: Compound concentration 1.0 uM
[14] = target: T2, Alpha-2B adrenergic receptor (Homo sapiens) (UniProt P18089); conditions: Compound concentration 10.0 uM
T2 sequence (whole entry): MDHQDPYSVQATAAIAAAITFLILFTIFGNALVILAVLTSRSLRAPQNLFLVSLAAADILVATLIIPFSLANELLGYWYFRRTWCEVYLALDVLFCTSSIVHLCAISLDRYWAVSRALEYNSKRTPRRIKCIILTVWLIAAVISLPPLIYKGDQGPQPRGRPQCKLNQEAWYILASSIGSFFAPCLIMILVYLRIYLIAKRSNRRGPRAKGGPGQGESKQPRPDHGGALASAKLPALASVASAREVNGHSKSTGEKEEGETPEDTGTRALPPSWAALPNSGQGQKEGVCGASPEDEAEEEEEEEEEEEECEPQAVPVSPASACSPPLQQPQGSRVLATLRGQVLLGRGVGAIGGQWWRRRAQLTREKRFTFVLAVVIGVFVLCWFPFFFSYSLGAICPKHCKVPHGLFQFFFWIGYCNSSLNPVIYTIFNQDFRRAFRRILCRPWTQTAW

[15] = target: Mitogen-activated protein kinase 11 (Homo sapiens) (UniProt Q15759); assay: SAPK2b(h) Millipore kinase panel; conditions: Compound concentration 1.0 uM
Homo sapiens = organism: Homo sapiens; conditions: Compound concentration 10.0 uM
[16] = target: D(3) dopamine receptor (Homo sapiens) (UniProt P35462); conditions: Compound concentration 10.0 uM
[17] = target: Dual specificity tyrosine-phosphorylation-regulated kinase 1A (Homo sapiens) (UniProt Q13627); assay: DYRK1A(h) Millipore kinase panel; conditions: Compound concentration 1.0 uM
[18] = target: Monoamine oxidase B (MAO-B) (Homo sapiens, UniProt P27338); assay: Inhibition of Monoamine Oxidase MAO-B at compound concentration of 10.0 uM in the Eurofins-Panlabs enzyme assay (Eurofins_assay_140120); parameters: substrate with concentration 50 uM Kynuramine, incubation time 60 min, incubation temperature 37 C; conditions: recombinant human MAO-B expressed in insect Hi5 cells, probe Kynuramine (50 uM), compound concentration 10 uM
[19] = target: T3, Alpha-2C adrenergic receptor (Homo sapiens) (UniProt P18825); conditions: Compound concentration 10.0 uM
T3 sequence (whole entry): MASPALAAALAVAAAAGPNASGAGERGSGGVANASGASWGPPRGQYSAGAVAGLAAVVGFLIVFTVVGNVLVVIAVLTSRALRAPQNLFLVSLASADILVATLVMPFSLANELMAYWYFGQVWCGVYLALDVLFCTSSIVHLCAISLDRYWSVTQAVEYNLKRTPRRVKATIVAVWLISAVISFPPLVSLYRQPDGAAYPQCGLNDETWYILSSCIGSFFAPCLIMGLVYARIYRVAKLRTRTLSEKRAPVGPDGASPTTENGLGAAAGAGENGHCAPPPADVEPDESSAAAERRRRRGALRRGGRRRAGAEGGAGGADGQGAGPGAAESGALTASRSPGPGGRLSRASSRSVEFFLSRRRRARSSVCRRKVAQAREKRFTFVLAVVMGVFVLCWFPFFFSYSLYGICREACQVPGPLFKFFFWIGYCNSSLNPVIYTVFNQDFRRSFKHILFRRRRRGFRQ

[20] = target: Serine/threonine-protein kinase BRSK1 (Homo sapiens) (UniProt Q8TDC3); assay: BrSK1(h) Millipore kinase panel; conditions: Compound concentration 1.0 uM
[21] = target: Androgen receptor (Homo sapiens) (UniProt P10275); conditions: Compound concentration 10.0 uM
[22] = target: Cyclin-dependent kinase 13/Cyclin-K (Homo sapiens) (UniProt Q14004+O75909); assay: CDK13/cyclinK(h) Millipore kinase panel; type: protein-complex assay; conditions: Compound concentration 1.0 uM
[23] = target: Serine/threonine-protein kinase Nek11 (Homo sapiens) (UniProt Q8NG66); assay: NEK11(h) Millipore kinase panel; conditions: Compound concentration 1.0 uM
[24] = target: Serine/threonine-protein kinase 32B (Homo sapiens) (UniProt Q9NY57); assay: STK32B(h) Millipore kinase panel; conditions: Compound concentration 1.0 uM
[25] = target: Cyclin-dependent kinase 1/cyclin B (Homo sapiens) (UniProt P06493+P14635+Q8WWL7+O95067); assay: CDK1/cyclinB(h) Millipore kinase panel; type: protein-complex assay; conditions: Compound concentration 1.0 uM
[26] = target: Mitogen-activated protein kinase kinase kinase 20 (Homo sapiens) (UniProt Q9NYL2); assay: ZAK(h) Millipore kinase panel; conditions: Compound concentration 1.0 uM

Chain of Serine/threonine-protein kinase OSR1 (Homo sapiens) (O95747 2-527 limits assumed): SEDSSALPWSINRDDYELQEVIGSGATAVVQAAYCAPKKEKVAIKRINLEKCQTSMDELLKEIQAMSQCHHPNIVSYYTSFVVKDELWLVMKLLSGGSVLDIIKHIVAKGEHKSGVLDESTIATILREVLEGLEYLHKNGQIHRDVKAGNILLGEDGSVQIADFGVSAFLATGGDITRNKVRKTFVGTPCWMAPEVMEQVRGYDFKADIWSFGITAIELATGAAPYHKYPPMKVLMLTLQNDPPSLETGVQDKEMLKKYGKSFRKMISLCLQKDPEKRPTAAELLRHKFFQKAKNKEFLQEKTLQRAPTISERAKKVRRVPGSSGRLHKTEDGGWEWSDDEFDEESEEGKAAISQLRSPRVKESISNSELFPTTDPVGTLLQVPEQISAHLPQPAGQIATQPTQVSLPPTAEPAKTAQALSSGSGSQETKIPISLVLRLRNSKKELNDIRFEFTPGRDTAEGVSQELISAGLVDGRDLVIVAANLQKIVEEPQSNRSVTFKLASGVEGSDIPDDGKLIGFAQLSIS
Chain of Cyclin-dependent kinase 13/Cyclin-K (Homo sapiens) (O75909 whole entry, looked up): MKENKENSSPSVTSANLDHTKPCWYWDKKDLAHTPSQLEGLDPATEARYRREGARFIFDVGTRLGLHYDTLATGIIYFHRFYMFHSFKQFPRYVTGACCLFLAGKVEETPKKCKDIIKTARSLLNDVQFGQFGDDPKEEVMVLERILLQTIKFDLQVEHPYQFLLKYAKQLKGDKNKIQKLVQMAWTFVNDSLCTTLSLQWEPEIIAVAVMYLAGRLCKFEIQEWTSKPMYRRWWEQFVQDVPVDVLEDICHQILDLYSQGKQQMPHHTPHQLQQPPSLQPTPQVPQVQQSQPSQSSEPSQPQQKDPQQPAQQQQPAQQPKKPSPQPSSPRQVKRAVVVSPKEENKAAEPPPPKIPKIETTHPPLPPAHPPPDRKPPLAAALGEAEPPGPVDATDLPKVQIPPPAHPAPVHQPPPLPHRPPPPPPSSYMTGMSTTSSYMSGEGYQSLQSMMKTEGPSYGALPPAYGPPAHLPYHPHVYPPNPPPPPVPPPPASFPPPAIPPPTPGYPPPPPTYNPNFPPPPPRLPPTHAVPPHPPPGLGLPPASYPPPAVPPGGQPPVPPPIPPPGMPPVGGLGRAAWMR
Chain of Cyclin-dependent kinase 13/Cyclin-K (Homo sapiens) (Q14004 whole entry, looked up): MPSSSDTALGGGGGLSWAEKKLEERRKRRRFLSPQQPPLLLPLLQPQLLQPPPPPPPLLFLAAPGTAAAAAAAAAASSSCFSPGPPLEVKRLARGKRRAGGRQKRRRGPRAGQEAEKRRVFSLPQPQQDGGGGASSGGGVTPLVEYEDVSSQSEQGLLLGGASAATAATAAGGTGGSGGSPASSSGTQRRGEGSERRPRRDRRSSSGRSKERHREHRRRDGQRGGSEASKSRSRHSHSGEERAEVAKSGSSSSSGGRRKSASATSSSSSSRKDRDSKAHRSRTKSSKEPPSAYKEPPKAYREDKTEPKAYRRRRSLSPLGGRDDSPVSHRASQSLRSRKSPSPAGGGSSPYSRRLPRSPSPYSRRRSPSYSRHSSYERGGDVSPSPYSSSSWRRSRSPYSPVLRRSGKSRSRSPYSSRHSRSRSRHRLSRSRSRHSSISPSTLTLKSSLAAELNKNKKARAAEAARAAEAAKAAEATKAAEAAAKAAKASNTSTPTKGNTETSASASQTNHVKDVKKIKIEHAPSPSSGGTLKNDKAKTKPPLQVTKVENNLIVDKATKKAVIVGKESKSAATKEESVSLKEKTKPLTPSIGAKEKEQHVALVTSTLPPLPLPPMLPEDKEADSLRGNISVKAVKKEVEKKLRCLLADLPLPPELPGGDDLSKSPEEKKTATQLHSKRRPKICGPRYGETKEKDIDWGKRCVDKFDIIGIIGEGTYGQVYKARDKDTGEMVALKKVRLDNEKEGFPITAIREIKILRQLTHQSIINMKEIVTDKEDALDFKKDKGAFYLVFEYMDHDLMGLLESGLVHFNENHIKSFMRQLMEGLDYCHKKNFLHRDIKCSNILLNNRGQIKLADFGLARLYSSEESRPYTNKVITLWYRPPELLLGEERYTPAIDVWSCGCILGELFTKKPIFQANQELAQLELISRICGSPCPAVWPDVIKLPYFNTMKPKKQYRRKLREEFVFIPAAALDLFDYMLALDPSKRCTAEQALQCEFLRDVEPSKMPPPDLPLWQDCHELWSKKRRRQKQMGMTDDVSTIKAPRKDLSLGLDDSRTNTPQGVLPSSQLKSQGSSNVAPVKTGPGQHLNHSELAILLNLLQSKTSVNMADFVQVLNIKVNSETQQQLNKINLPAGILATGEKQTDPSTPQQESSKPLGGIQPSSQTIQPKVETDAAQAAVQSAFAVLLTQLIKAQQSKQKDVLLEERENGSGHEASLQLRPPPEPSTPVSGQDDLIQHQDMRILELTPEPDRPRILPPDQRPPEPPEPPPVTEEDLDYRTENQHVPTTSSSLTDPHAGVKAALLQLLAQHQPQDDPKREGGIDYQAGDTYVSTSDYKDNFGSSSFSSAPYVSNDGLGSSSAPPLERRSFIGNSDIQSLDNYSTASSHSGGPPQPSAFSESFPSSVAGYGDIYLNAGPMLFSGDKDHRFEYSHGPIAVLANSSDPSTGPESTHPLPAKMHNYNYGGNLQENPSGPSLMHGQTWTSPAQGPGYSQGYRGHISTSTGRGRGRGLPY
Chain of Serine/threonine-protein kinase BRSK1 (Homo sapiens) (Q8TDC3 whole entry): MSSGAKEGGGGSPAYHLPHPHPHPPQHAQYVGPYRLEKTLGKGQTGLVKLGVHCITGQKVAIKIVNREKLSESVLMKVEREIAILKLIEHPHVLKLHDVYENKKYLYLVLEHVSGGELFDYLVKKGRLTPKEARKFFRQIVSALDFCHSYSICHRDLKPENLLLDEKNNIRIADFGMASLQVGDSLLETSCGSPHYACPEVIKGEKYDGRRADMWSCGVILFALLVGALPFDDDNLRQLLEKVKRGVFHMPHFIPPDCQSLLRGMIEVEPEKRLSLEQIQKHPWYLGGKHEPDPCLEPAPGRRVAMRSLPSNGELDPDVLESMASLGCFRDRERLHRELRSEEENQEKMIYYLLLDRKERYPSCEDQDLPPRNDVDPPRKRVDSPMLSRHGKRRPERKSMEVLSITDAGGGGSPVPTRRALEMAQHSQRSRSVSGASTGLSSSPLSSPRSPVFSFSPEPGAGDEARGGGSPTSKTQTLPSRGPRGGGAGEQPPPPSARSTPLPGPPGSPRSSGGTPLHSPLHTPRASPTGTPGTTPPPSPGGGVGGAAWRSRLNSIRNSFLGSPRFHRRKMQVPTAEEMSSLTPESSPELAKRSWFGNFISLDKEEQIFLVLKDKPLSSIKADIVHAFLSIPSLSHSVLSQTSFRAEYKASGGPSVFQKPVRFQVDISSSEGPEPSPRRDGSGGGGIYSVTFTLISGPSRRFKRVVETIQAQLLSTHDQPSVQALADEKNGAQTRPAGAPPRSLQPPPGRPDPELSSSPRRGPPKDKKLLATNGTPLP
Chain of Monoamine oxidase B (MAO-B) (P27338 whole entry): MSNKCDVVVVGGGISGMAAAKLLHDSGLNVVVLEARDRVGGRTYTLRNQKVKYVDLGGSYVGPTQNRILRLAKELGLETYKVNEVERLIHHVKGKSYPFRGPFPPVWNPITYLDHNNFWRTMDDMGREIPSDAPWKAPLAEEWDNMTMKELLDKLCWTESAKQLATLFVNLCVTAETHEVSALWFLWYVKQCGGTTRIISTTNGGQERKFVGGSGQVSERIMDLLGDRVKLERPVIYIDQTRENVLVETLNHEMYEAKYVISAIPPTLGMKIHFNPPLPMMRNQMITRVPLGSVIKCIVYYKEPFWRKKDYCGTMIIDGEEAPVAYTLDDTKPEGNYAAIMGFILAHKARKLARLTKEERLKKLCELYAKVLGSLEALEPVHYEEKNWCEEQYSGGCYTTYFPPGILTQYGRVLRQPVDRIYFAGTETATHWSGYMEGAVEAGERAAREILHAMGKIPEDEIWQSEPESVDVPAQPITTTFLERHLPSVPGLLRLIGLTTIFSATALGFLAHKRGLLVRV
Chain of Muscle, skeletal receptor tyrosine-protein kinase (Homo sapiens) (O15146 whole entry): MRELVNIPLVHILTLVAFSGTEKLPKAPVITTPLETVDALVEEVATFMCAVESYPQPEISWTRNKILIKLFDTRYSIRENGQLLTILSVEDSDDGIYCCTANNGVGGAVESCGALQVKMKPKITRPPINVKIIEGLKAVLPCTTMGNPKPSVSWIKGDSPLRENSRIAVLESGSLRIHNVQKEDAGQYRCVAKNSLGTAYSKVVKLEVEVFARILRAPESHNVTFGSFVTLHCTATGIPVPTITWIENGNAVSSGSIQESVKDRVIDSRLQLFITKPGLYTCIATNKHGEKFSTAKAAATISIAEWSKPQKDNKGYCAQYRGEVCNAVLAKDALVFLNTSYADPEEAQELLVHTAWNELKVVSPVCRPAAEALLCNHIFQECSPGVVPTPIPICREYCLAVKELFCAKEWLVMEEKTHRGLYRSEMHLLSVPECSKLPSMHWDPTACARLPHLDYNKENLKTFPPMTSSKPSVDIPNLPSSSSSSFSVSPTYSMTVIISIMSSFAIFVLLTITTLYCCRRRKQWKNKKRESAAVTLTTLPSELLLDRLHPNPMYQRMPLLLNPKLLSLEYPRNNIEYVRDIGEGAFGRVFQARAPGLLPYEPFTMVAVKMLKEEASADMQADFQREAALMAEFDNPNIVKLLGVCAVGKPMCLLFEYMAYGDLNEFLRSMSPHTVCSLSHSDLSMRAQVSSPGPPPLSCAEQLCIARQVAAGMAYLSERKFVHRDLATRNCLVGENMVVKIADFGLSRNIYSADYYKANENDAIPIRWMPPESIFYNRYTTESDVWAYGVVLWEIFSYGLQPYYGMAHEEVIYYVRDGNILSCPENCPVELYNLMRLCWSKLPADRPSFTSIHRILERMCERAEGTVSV

For CC[C@@H](Nc1c(C#N)c(-c2ccc(-c3cccc(C)c3F)cc2)nc2cnccc12)C(=O)O [BAY-091], which inhibition [1] is on record?
Its inhibition is 14.8%.

And the inhibition [2]?
The inhibition was 27%.

What about the inhibition [3] of the same compound?
The inhibition was -5.27%.

And the inhibition [4]?
Its inhibition is 18.1%.

What about the inhibition [5] of the same compound?
Its inhibition is 12.8%.

What about the inhibition [6] of the same compound?
Its inhibition is -1%.

And the inhibition [7]?
Its inhibition is 5.1%.

What about the inhibition [8] of the same compound?
The inhibition was -6.26%.

And the inhibition [9]?
Its inhibition is 5.46%.

What about the inhibition [10] of the same compound?
Its inhibition is 11%.

What about the inhibition [11] of the same compound?
Its inhibition is 9.54%.

And the inhibition [12]?
Its inhibition is 5.02%.

And the inhibition [13]?
Its inhibition is -3.86%.

What about the inhibition [14] of the same compound?
The inhibition was -1.14%.

What about the inhibition [15] of the same compound?
Its inhibition is -2.08%.

What about the inhibition (Homo sapiens) of the same compound?
The inhibition was -8%.

What about the inhibition [16] of the same compound?
Its inhibition is 10.5%.

What about the inhibition [17] of the same compound?
Its inhibition is 4.22%.

And the inhibition at 60 min, 10 µM [18]?
The inhibition at 60 min, 10 µM was 81% (active).

And the inhibition [19]?
The inhibition was -6.87%.

And the inhibition [20]?
Its inhibition is -4.39%.

What about the inhibition [21] of the same compound?
The inhibition was 14%.

And the inhibition [22]?
Its inhibition is 1.16%.

What about the inhibition [23] of the same compound?
Its inhibition is 7.12%.

What about the inhibition [24] of the same compound?
The inhibition was 14.9%.

What about the inhibition [25] of the same compound?
Its inhibition is 8.82%.

What about the inhibition [26] of the same compound?
Its inhibition is -4.94%.
